Experimental data published in PubChem BioAssay (NCI).
“And” between values parts separate entries of the source, which are not always exact repeats. Equal values may be shown once.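 Following 48 hours of exposure in 96-well plates, responses at five concentrations were used to interpolate endpoints linearly. GI50: concentration for 50% inhibition of growth. Definition used: TGI = concentration required for complete inhibition of growth.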 The source made the active and inactive calls. Cut-off read from the data, not from the text of the source: active = GI50 below about 0.43 µM; inactive = the rest.

How the values were obtained:
Assay in all cases: DTP human tumour cell line panel, 48 h
[1] = tested on: COLO 205 colon
[2] = tested on: SNB-75 CNS
[3] = tested on: HCT-15 colon
[4] = tested on: SF-295 CNS
[5] = tested on: NCI-H23 lung
[6] = tested on: OVCAR-5 ovarian
[7] = tested on: KM12 colon
[8] = tested on: MOLT-4 leukemia
[9] = tested on: U251 CNS

| Structure (SMILES) | GI50 [1] | TGI [1] | GI50 [2] | TGI [2] | GI50 [3] | TGI [3] | GI50 [4] | TGI [4] | GI50 [5] | TGI [5] | GI50 [6] | TGI [6] | GI50 [7] | TGI [7] | GI50 [8] | TGI [8] | GI50 [9] | TGI [9] | outcome [1] |
| --- | --- | --- | --- | --- | --- | --- | --- | --- | --- | --- | --- | --- | --- | --- | --- | --- | --- | --- | --- |
| COc1ccc2[nH]c(=O)c3c4ccccc4cn3c2c1 | 0.373 µM | 1.36 µM | 0.366 µM | 9.47 µM | 0.31 µM | 1.4 µM | 0.393 µM | 1.71 µM | 0.639 µM | 6.59 µM | 0.659 µM | 2.69 µM | 0.323 µM | 1.65 µM | 0.399 µM | 2.23 µM | 0.388 µM | 1.55 µM | – |
| CCOC(=O)c1ccc2[nH]c(-c3ccc(S(=O)(=O)F)cc3)cc(=O)c2c1 | – | > 100 µM | – | > 100 µM | – | > 100 µM | – | > 100 µM | – | 47 µM | – | > 100 µM | – | > 100 µM | – | > 100 µM | – | > 100 µM | – |
| Cn1cc(-c2ccc3c(Nc4cccc(NC(=O)Nc5cccc(F)c5)c4)ncnc3c2)cn1 | 0.0503 µM | 13.4 µM | 0.0391 µM | 9.57 µM | 2.5 µM | 13.1 µM | 1.81 µM | 8.42 µM | 2.99 µM | 13.4 µM | 10.3 µM | 22 µM | 2.52 µM | 10.8 µM | 1.95 µM | 14.6 µM | 1.79 µM | 5.07 µM | – |
| CCSCC1CC(O)(c2ccccc2)C(c2ccccc2)C(c2ccc(Cl)cc2)O1 (stereo unspecified) | 1.53 µM | 2.94 µM | 1.75 µM | 4.72 µM | 1.69 µM | 4.5 µM | 1.56 µM | 3.73 µM | 1.88 µM | 3.94 µM | 1.82 µM | 3.54 µM | 2.56 µM | 6.92 µM | 1.73 µM | 9.82 µM | 1.63 µM | 3.32 µM | – |
| COC(=O)[C@@]12C(=O)C=CC(=O)[C@@H]1C1C(=CC2COC(C)=O)O[C@@H]2OC3(CCCCC3)O[C@H]12 (stereo partly specified) | – | 18.4 µM | – | 26.4 µM | – | 18.7 µM | – | 29.7 µM | – | 35.9 µM | – | 30.7 µM | – | 26.5 µM | – | 21 µM | – | 29.2 µM | – |
| Cc1ccc([N+](=O)[O-])cc1NC(=O)Nc1cccc(F)c1 | 8.85 µM | > 100 µM | 11.6 µM | 37.1 µM | 3.44 µM | > 100 µM | 2.46 µM | 11 µM | 2.61 µM | > 100 µM | 9.82 µM | > 100 µM | 3.67 µM | 48.7 µM | 3.38 µM | > 100 µM | 3.82 µM | 18.4 µM | – |
| COc1ccccc1/C=C(\C#N)c1ccccc1 | – | 32.4 µM | – | 60 µM | – | 67.4 µM | – | > 100 µM | – | > 100 µM | – | > 100 µM | – | > 100 µM | – | 97.3 µM | – | > 100 µM | – |
| CN(C)CCOc1ccc(-c2nc(-c3ccc4c(c3)CC/C4=N\O)c(-c3ccncc3)[nH]2)cc1 | 0.00987 µM and 0.0293 µM | 3.1 µM and 5.06 µM | 0.403 µM and 1.11 µM | 5.48 µM and 11 µM | 9.22 µM and 15.5 µM | 25 µM and 57.4 µM | 4.6 µM and 8.82 µM | 9.42 µM and 21.4 µM | 3.23 µM and 3.98 µM | 7.85 µM and 25.7 µM | 3.7 µM and 1.61 µM | 7.55 µM and 6.27 µM | 4.39 µM and 2.65 µM | 8.07 µM and 6.18 µM | 5.74 µM and 3.53 µM | 12.2 µM and 25.7 µM | 4.83 µM and 2.35 µM | 9.15 µM and 4.69 µM | – |
| CN1C(=O)CC(c2cccc(C3CC(=O)N(C)C3=O)n2)C1=O (stereo unspecified) | – | > 100 µM | – | > 100 µM | – | > 100 µM | – | > 100 µM | – | > 100 µM | – | > 100 µM | – | > 100 µM | – | > 100 µM | – | > 100 µM | – |
| CC(C)[C@]12O[C@H]1[C@@H]1O[C@]13[C@]1(O[C@H]1C[C@H]1C4=C(CC[C@@]13C)C(=O)OC4)[C@@H]2O | 0.0117 µM | 0.0219 µM and 0.0366 µM | 0.0168 µM | 0.035 µM and 0.0398 µM | 0.0122 µM | > 2.93 µM | – | 0.646 µM and 0.934 µM | – | 0.0156 µM | 0.0325 µM and 0.0282 µM | > 100 µM | 0.102 µM | – | 0.0128 µM | 0.0348 µM | 0.0379 µM | > 100 µM | – |
| FC(F)(F)Oc1cccc(-c2cnc3ccc(-c4ccncc4)nn23)c1 | 1.5 µM | 16.7 µM | 1.73 µM | 5.14 µM | 0.608 µM | > 100 µM | 1.54 µM | > 100 µM | 1.96 µM | 17.4 µM | 1.96 µM | > 100 µM | 0.662 µM | > 100 µM | 2.17 µM | 7.73 µM | 0.833 µM | > 100 µM | – |
| Cc1ccccc1NC(=O)C(=O)C(C#N)c1ccc(Cl)cc1 (stereo unspecified) | – | > 100 µM | – | > 100 µM | – | 37.1 µM | – | > 100 µM | – | > 100 µM | – | > 100 µM | – | > 100 µM | – | > 100 µM | – | > 100 µM | – |
| CCNC(=O)[C@@H]1CCCN2C(=O)CC[C@H](NC(=O)[C@H](Cc3ccc(OP(=O)(O)O)cc3)NC(C)=O)C(=O)N12 | > 25 µM | > 25 µM | > 25 µM | > 25 µM | > 25 µM | > 25 µM | > 25 µM | > 25 µM | > 25 µM | > 25 µM | > 25 µM | > 25 µM | > 25 µM | > 25 µM | > 25 µM | > 25 µM | > 25 µM | > 25 µM | – |
| COc1ccc2oc(=O)cc(C(c3ccc[nH]3)c3ccc[nH]3)c2c1 | 0.221 µM | 0.549 µM | 0.123 µM | 11.8 µM | 0.1 µM | 11.5 µM | 0.092 µM | 0.214 µM | 0.11 µM | 14 µM | 0.128 µM | 19.9 µM | 0.104 µM | 11.3 µM | 0.111 µM | 12 µM | 0.11 µM | 12.9 µM | – |
| O=C(Nc1ccc(Cl)c(Cl)c1)c1cccc(NC2=C(Cl)C(=O)N(Cc3ccccc3)C2=O)c1 | > 100 µM | > 100 µM | > 100 µM | > 100 µM | 36.6 µM | > 100 µM | 49.7 µM | > 100 µM | 37.1 µM | > 100 µM | > 100 µM | > 100 µM | 69 µM | > 100 µM | 6.36 µM | 78.5 µM | 35.3 µM | > 100 µM | – |
| COC(=O)CCC(=O)C(=O)OC | – | – | 14800 µM | – | 31500 µM | – | 42000 µM | – | 27400 µM | 95700 µM | 26100 µM | – | 27900 µM | – | 34800 µM | – | 33400 µM | – | inactive |
| O=C[C@@H](CO)O[C@H](C=O)c1c[nH]c(=O)[nH]c1=O | – | 1210 µM | – | 1310 µM | – | 327 µM | – | 1150 µM | – | 539 µM | – | 379 µM | – | 362 µM | – | 605 µM | – | 930 µM | – |
| O=C(O)C/C(=C\c1ccco1)C(=O)O | – | > 100 µM | – | > 100 µM | – | > 100 µM | – | > 100 µM | – | > 100 µM | – | > 100 µM | – | > 100 µM | – | > 100 µM | – | > 100 µM | – |
| O=C(Nc1ccccc1-c1n[nH]c(=S)[nH]c1=O)C(F)(F)F | – | > 100 µM | – | > 100 µM | – | > 100 µM | – | > 100 µM | – | > 100 µM | – | > 100 µM | – | > 100 µM | – | > 100 µM | – | > 100 µM | – |
| Clc1ncnc(Cl)c1Cl | – | > 100 µM | – | > 100 µM | – | > 100 µM | – | > 100 µM | – | > 100 µM | – | > 100 µM | – | > 100 µM | – | > 100 µM | – | > 100 µM | – |
| Cc1ccc(S(=O)(=O)N[C@H](C(=O)O)c2ccccc2)cc1 | – | > 100 µM | – | > 100 µM | – | > 100 µM | – | > 100 µM | – | > 100 µM | – | > 100 µM | – | > 100 µM | – | > 100 µM | – | > 100 µM | – |
| Cc1cn(Cc2ccccc2CCO)c(=S)[nH]c1=O | – | > 100 µM | – | > 100 µM | – | > 100 µM | – | > 100 µM | – | > 100 µM | – | > 100 µM | – | > 100 µM | – | > 100 µM | – | > 100 µM | – |
| CC(C)(C)OC1=C(OC(C)(C)C)C(O)(c2ccccc2)C1=O (stereo unspecified) | – | > 100 µM | – | > 100 µM | – | > 100 µM | – | > 100 µM | – | > 100 µM | – | > 100 µM | – | > 100 µM | – | > 100 µM | – | > 100 µM | – |
| O=C(Nc1ccc(Cl)cc1Cl)C1C(=O)N(c2ccc(Cl)cc2Cl)C(=O)/C1=N\Nc1ccc([N+](=O)[O-])cc1[N+](=O)[O-] (stereo unspecified) | – | > 100 µM | – | 97.7 µM | – | > 100 µM | – | > 100 µM | – | 87.6 µM | – | > 100 µM | – | > 100 µM | – | 74.8 µM | – | > 100 µM | – |
| CC[C@]12CCCN3CCc4c(n(c5ccccc45)C(=O)C1)[C@@H]32 | – | > 34 µM | – | 78.4 µM | – | > 100 µM | – | 18.4 µM | – | > 100 µM | – | > 100 µM | – | > 100 µM | – | > 58.2 µM | – | > 52.2 µM | – |
| COc1cccc(C2c3cc4c(cc3OC(C)(N3CCCC3)C2C)OCO4)c1OC (stereo unspecified) | – | 24.6 µM | – | 94.3 µM | – | 30.7 µM | – | > 100 µM | – | 44.6 µM | – | 43 µM | – | 23 µM | – | 27.4 µM | – | 24.5 µM | – |
| O=C(Nc1c(O)[nH]c(=S)[nH]c1=O)c1ccccc1F | – | > 100 µM | – | > 100 µM | – | > 100 µM | – | > 100 µM | – | > 100 µM | – | > 100 µM | – | > 100 µM | – | > 100 µM | – | > 100 µM | – |
